According to patent US10246469B2, “Biaryl kinase inhibitors” (BRISTOL-MYERS SQUIBB COMPANY, priority 2015, dated 2019):

Target: T1, GST-Xa-hAAK1 (Homo sapiens, UniProt Q2M2I8)
T1 construct: GST (N); Factor Xa cleavage site (Xa) (internal); made in house
Assay: AAK1 Kinase Assay
Assay type: biochemical
Settings: bacterially expressed GST-Xa-hAAK1 3.5 nM; ATP 22 μM; fluoresceinated peptide 1.5 μM; 3 hours at room temperature; Caliper LabChip 3000
Outline: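 Bacterially expressed GST-Xa-hAAK1 (3.5 nM) phosphorylated 1.5 μM 5-FAM peptide with 22 μM ATP in Tris pH 7.4, MgCl2, DTT, 1.6% DMSO, 3 h at room temperature. EDTA-stopped; product separated electrophoretically on Caliper LabChip. IC50 from eleven concentrations by non-linear regression.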

T1 sequence (Q2M2I8 whole entry): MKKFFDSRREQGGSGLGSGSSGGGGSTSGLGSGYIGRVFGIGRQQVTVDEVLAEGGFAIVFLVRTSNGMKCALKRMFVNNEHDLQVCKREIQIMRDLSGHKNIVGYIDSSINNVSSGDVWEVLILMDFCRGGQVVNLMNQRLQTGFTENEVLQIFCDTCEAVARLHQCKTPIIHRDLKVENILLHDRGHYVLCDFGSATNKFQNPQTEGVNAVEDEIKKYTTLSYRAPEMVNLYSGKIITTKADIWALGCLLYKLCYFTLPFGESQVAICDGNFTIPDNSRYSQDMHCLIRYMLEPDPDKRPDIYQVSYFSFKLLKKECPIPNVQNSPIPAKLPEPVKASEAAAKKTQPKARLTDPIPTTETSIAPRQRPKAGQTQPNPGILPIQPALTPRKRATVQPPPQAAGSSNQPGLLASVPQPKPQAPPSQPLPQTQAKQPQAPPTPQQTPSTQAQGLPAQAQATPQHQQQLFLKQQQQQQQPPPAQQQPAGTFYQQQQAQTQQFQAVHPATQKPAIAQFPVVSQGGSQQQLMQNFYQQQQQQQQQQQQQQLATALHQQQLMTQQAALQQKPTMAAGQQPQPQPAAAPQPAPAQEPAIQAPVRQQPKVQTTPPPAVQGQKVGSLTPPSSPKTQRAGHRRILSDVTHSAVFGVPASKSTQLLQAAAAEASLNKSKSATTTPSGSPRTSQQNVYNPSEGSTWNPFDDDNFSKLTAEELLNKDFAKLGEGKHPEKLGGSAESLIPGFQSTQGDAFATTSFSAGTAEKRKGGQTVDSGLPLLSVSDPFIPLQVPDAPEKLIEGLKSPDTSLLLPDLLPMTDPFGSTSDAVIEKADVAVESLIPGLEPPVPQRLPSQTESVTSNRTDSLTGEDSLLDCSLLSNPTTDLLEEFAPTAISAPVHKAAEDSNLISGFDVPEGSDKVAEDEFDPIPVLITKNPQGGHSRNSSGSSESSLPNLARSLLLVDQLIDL

SMILES | IC50 [nM]
CC(C)C[C@](C)(N)COc1ccc(-c2ccnc3c2CC(=O)N3)cc1C#N [Example 302, (S)-2-((2-amino-2,4-dimethylpentyl)oxy)-5-(2-oxo-2,3-dihydro-1H-pyrrolo[2,3-b]pyridin-4-yl)benzonitrile] | 5.3
Cc1nc(-c2cnn3cc(C#N)cnc23)ccc1OC[C@@](C)(N)CC(C)C [Example 478, (S)-3-(5-((2-amino-2,4-dimethylpentyl)oxy)-6-methylpyridin-2-yl)pyrazolo[1,5-a]pyrimidine-6-carbonitrile] | 11
CC(C)C[C@](C)(N)COc1ccc(-c2ccnc3ccnn23)cc1C(F)F [Example 351, (S)-1-(2-(difluoromethyl)-4-(pyrazolo[1,5-a]pyrimidin-7-yl)phenoxy)-2,4-dimethylpentan-2-amine] | 0.4
Cc1nc2c(-c3ccc(OC[C@@](C)(N)CC(C)C)c(Cl)c3)ccnc2[nH]1 [Example 282, (S)-1-(2-chloro-4-(2-methyl-3H-imidazo[4,5-b]pyridin-7-yl)phenoxy)-2,4-dimethylpentan-2-amine] | 36
CC(C)C[C@](C)(N)COc1ccc(-c2ccnc3ccnn23)cc1C#N [Example 460, (S)-2-((2-amino-2,4-dimethylpentyl)oxy)-5-(pyrazolo[1,5-a]pyrimidin-7-yl)benzonitrile] | 0.6
Cc1cc(-c2ccnn3cc(C(F)(F)F)nc23)cnc1OC[C@](C)(N)CC(C)C [Example 504, (R)-2,4-dimethyl-1-((3-methyl-5-(2-(trifluoromethyl)imidazo[1,2-b]pyridazin-8-yl)pyridin-2-yl)oxy)pentan-2-amine] | 606
Cc1cc(-c2ccnc3ccnn23)ccc1OC[C@@](C)(N)CC(C)C [Example 472, (S)-2,4-dimethyl-1-(2-methyl-4-(pyrazolo[1,5-a]pyrimidin-7-yl)phenoxy)pentan-2-amine] | 0.5
Cc1cc(-c2ccc(OC[C@@](C)(N)CC(C)C)c(Cl)c2)n2nc(C)cc2n1 [Example 459, (S)-1-(2-chloro-4-(2,5-dimethylpyrazolo[1,5-a]pyrimidin-7-yl)phenoxy)-2,4-dimethylpentan-2-amine] | 1270
CC(C)C[C@](C)(N)COc1ccc(-c2ccnc3c2C(=O)NC3)cc1Cl [Example 417, (S)-4-(4-((2-amino-2,4-dimethylpentyl)oxy)-3-chlorophenyl)-6,7-dihydro-5H-pyrrolo[3,4-b]pyridin-5-one] | 3.6
Cc1nccc(-c2ccc(OC[C@@](C)(N)CC(C)C)c3ncsc23)n1 [Example 342, (S)-2,4-dimethyl-1-((7-(2-methylpyrimidin-4-yl)benzo[d]thiazol-4-yl)oxy)pentan-2-amine] | 39
CC(C)C[C@](C)(N)COc1ccc(-c2ccnc3nccnc23)cc1F [Example 253, (S)-1-(2-fluoro-4-(pyrido[2,3-b]pyrazin-8-yl)phenoxy)-2,4-dimethylpentan-2-amine] | 537
CC(C)C[C@](C)(N)COc1ccc(-c2ccnc(NC3CCOCC3)c2)cc1C#N [Example 468, (S)-2-(2-amino-2,4-dimethylpentyloxy)-5-(2-(tetrahydro-2H-pyran-4-ylamino)pyridin-4yl)benzonitrile] | 54
CC(C)C[C@](C)(N)COc1ccc(-c2ccnn3cc(C(F)(F)F)nc23)cc1 [Example 501, (S)-2,4-dimethyl-1-(4-(2-(trifluoromethyl)imidazo[1,2-b]pyridazin-8-yl)phenoxy)pentan-2-amine] | 69
Cc1cc(-c2ccnc3ccnn23)cnc1OC[C@](C)(N)CC(C)C [Example 264, (R)-2,4-dimethyl-1-((3-methyl-5-(pyrazolo[1,5-a]pyrimidin-7-yl)pyridin-2-yl)oxy)pentan-2-amine] | 79
Cc1nc(-c2ccnc3ccnn23)ccc1OCC(N)(CC(C)C)C(F)(F)F (centres unmarked) [Example 490, 1,1,1-trifluoro-4-methyl-2-(((2-methyl-6-(pyrazolo[1,5-a]pyrimidin-7-yl)pyridin-3-yl)oxy)methyl)pentan-2-amine] | 37

Continued, values first:

IC50 [nM] | SMILES
22 | COCc1nc2c(-c3ccc(OC[C@@](C)(N)CC(C)C)c(C(F)(F)F)c3)ccnc2[nH]1 [Example 295, (S)-1-(4-(2-(methoxymethyl)-3H-imidazo[4,5-b]pyridin-7-yl)-2-(trifluoromethyl)phenoxy)-2,4-dimethylpentan-2-amine]
0.5 | CC(C)C[C@](C)(N)COc1ccc(-c2ccnc(NC(=O)c3cccs3)c2)cc1C(F)(F)F [Example 403, (S)—N-(4-(4-((2-amino-2,4-dimethylpentyl)oxy)-3-(trifluoromethyl)phenyl)pyridin-2-yl)thiophene-2-carboxamide]
0.6 | CC(C)C[C@](C)(N)COc1ccc(-c2ccnc3c2CC(=O)N3)cc1C(F)(F)F [Example 303, (S)-4-(4-((2-amino-2,4-dimethylpentyl)oxy)-3-(trifluoromethyl)phenyl)-1H-pyrrolo[2,3-b]pyridin-2(3H)-one]
0.7 | CC(C)C[C@](C)(N)COc1ccc(-c2ccnc(NC(=O)c3cnccn3)c2)cc1C(F)(F)F [Example 404, (S)—N-(4-(4-((2-amino-2,4-dimethylpentyl)oxy)-3-(trifluoromethyl)phenyl)pyridin-2-yl)pyrazine-2-carboxamide]
0.3 | CC(C)C[C@](C)(N)COc1ccc(-c2ccnc(NC(=O)c3cnn[nH]3)c2)cc1C(F)(F)F [Example 406, (S)—N-(4-(4-((2-amino-2,4-dimethylpentyl)oxy)-3-(trifluoromethyl)phenyl)pyridin-2-yl)-1H-1,2,3-triazole-5-carboxamide]
66 | Cc1cn2nc(Cl)cc(-c3ccc(OC[C@@](C)(N)CC(C)C)c(C(F)(F)F)c3)c2n1 [Example 495, (S)-1-(4-(6-chloro-2-methylimidazo [1,2-b]pyridazin-8-yl)-2-(trifluoromethyl)phenoxy)-2,4-dimethylpentan-2-amine]
7.3 | CC(C)C[C@](C)(N)COc1ccc(-c2ccnc(NC(=O)CCC3CCCC3)c2)cc1C(F)(F)F [Example 393, (S)—N-(4-(4-((2-amino-2,4-dimethylpentyl)oxy)-3-(trifluoromethyl)phenyl)pyridin-2-yl)-3-cyclopentylpropanamide]
15 | CC(C)C[C@](C)(N)COc1ccc(-c2ccnc(NC3CCC(F)C3)c2)cc1Cl (stereo partly drawn) [Example 334, 4-(4-(((S)-2-amino-2,4-dimethylpentyl)oxy)-3-chlorophenyl)-N-(3-fluorocyclopentyl)pyridin-2-amine]
0.7 | CC(C)C[C@](C)(N)COc1ccc(-c2ccnc(NC(=O)c3cc(C(C)C)[nH]n3)c2)cc1C(F)(F)F [Example 409, (S)—N-(4-(4-((2-amino-2,4-dimethylpentyl)oxy)-3-(trifluoromethyl)phenyl)pyridin-2-yl)-5-isopropyl-1H-pyrazole-3-carboxamide]
8.4 | Cc1nc2c(-c3ccc(OC[C@@](C)(N)CC(C)C)c(C(F)(F)F)c3)ncnc2s1 [Example 270, (S)-2,4-dimethyl-1-(4-(2-methylthiazolo[5,4-d]pyrimidin-7-yl)-2-(trifluoromethyl)phenoxy)pentan-2-amine]
15 | CC(C)C[C@](C)(N)COc1ccc(-c2ccnc3cc(C(F)(F)F)nn23)cc1Cl [Example 336, (S)-1-(2-chloro-4-(2-(trifluoromethyl)pyrazolo[1,5-a]pyrimidin-7-yl)phenoxy)-2,4-dimethylpentan-2-amine]
